US6020366A, “Butyric acid matrix metalloproteinase inhibitors” (priority 1998, dated 2000)

Columns and labels:
Type in all cases: biochemical
MMP-3 (stromelysin) = MMP-3 (stromelysin) (Homo sapiens, UniProt P08254); assay: inhibition of MMP-3 hydrolysis of thiopeptolide substrate; details: thiopeptolide substrate, pH 6.0, 22° C.; read-out: (IC50) MMP-3
Source text: The assays measure the amount by which a test compound reduces the hydrolysis of a thiopeptolide substrate caused by a matrix metalloproteinase enzyme. Such assays are described in detail by Ye, et al., in Biochemistry, 1992;31(45):11231-11235).
Thiopeptolide substrates show virtually no decomposition or hydrolysis in the absence of a matrix metalloproteinase enzyme. A typical thiopeptolide substrate commonly utilized for assays is Ac-Pro-Leu-Gly-thioester-Len-Len-Gly-O Et. […] Assays are carried out with and without matrix metalloproteinase inhibitor compounds, and the amount of hydrolysis is compared for a determination of inhibitory activity of the test compounds.
In the table, MMP-1 refers to interstitial collagenase; MMP-2 refers to Gelatinase A; MMP-3 refers to stromelysin; MMP-7 refers to matrilysin; and MMP-13 refers to Collagenase 3.

[1] = target: T1, MMP-1 (interstitial collagenase) (Homo sapiens, UniProt P03956); assay: inhibition of MMP-1 hydrolysis of thiopeptolide substrate; details: pH 6.0, 22° C.
T1 sequence (P03956 100-469): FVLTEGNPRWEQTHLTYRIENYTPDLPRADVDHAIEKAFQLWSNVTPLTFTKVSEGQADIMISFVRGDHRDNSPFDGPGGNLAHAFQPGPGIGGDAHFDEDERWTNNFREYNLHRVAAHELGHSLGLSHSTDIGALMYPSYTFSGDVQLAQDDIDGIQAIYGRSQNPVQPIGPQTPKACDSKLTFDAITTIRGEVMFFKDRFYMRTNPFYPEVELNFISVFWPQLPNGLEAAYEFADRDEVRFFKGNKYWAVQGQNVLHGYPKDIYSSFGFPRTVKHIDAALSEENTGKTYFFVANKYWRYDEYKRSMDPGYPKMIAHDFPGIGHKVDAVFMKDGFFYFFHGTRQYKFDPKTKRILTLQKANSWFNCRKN
Source text: (§1) The invention compounds have been evaluated in standard in vitro assays and shown to be potent inhibitors of several matrix metalloproteinase enzymes.

MMP-13 (Collagenase 3) = MMP-13 (Collagenase 3) (Homo sapiens, UniProt P45452); assay: inhibition of MMP-13 hydrolysis of thiopeptolide substrate; details: thiopeptolide substrate, pH 6.0, 22° C.; read-out: (IC50) MMP-13
Source text: as §1

MMP-2 (Gelatinase A) = target: T2, MMP-2 (Gelatinase A) (Homo sapiens, UniProt P08253); assay: inhibition of MMP-2 hydrolysis of thiopeptolide substrate; details: thiopeptolide substrate, pH 6.0, 22° C.; read-out: (IC50) MMP-2
T2 sequence (P08253 110-660): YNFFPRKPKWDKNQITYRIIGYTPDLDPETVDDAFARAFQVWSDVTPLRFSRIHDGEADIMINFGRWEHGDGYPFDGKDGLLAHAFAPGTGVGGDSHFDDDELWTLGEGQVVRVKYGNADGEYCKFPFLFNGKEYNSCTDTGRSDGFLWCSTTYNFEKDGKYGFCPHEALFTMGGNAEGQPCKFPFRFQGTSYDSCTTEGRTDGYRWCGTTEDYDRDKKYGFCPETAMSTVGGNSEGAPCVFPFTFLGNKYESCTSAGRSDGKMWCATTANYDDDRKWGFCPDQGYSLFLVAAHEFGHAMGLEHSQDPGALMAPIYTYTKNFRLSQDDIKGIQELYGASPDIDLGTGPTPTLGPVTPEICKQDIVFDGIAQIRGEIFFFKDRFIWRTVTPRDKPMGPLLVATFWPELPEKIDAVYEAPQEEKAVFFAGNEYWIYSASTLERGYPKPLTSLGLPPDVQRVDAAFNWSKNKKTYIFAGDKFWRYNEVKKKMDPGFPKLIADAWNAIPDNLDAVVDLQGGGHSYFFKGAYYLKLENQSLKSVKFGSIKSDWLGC

[2] = target: T3, full-length collagenase (FLC) (Homo sapiens, UniProt P03956); assay: inhibition of full-length collagenase hydrolysis of thiopeptolide substrate
T3 construct: full-length collagenase hydrolysis of thiopeptolide substrate (FLC)
T3 sequence (P03956 100-469): T1 sequence (P03956 100-469)
Source text: as §1
(§2) The compounds were additionally evaluated for their ability to inhibit full-length collagenase hydrolysis of thiopeptolide substrate (FLC) and full-length gelatinase B (FLGB) hydrolysis of thiopeptolide.

[3] = target: T4, full-length gelatinase B (FLGB) (Homo sapiens, UniProt P14780); assay: inhibition of full-length gelatinase B hydrolysis of thiopeptolide
T4 construct: full-length gelatinase B (FLGB) hydrolysis of thiopeptolide
Source text: as §1, §2

Chain of MMP-3 (stromelysin) (P08254 100-477): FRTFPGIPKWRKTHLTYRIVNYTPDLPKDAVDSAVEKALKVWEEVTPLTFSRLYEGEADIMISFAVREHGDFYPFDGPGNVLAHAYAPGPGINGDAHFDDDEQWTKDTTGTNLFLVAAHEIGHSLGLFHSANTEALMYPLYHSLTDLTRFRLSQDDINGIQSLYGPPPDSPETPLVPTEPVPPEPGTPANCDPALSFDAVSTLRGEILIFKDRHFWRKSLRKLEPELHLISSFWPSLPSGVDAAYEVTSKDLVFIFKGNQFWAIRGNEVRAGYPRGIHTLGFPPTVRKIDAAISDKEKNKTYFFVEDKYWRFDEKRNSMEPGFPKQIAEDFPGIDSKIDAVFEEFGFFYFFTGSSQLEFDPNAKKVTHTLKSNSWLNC
T4 sequence (P14780 94-707): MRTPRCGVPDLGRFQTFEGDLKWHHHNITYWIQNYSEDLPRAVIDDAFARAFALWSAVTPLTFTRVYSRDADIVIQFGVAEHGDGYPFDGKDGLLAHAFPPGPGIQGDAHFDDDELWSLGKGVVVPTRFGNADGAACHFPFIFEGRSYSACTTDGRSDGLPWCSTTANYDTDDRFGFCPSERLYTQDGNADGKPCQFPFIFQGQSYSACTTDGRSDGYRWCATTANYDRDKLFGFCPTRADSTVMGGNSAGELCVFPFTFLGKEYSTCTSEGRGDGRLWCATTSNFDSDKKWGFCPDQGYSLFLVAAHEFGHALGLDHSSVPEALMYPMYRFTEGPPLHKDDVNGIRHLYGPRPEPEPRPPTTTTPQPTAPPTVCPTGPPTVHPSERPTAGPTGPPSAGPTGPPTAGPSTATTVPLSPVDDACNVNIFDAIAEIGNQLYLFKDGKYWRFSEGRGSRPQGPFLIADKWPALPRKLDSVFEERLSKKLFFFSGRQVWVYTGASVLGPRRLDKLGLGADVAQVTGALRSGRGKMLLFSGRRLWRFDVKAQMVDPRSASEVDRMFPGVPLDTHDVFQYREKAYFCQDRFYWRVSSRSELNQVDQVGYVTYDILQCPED

| SMILES | IC50 (MMP-3 (stromelysin)) [µM] | IC50 [1] [µM] | IC50 (MMP-13 (Collagenase 3)) [µM] | IC50 (MMP-2 (Gelatinase A)) [µM] | IC50 [2] [µM] | IC50 [3] [µM] |
| --- | --- | --- | --- | --- | --- | --- |
| Cc1ccc(S(=O)(=O)N[C@@H](CC(=O)c2ccc3oc4ccccc4c3c2)C(=O)O)cc1 [Example 14, (S) -4-Dibenzofuran-2-yl-4-oxo-2-(4-methylphenylsulfonylamino)-butyric acid] | 0.26 | 83 | 1.1 | 0.017 | – | – |
| COc1ccc(CC(=O)NC(CC(=O)c2ccc3oc4ccccc4c3c2)C(=O)O)cc1OC (stereo not shown) [Example 21, 4-Dibenzofuran-2-yl-2-[2-(3,4-dimethoxy-phenyl)-acetylamino] -4-oxo-butyric acid] | 2.4 | – | 16 | 0.32 | – | – |
| COc1ccc(C(=O)NC(CC(=O)c2ccc3oc4ccccc4c3c2)C(=O)O)cc1OC (stereo not shown) [Example 47, 4-Dibenzofuran-2-yl-2-(3,4-dimethoxy-benzoylamino)-4-oxo-butyric acid] | 0.87 | – | 8.8 | 0.13 | – | – |
| COc1ccc(C(=O)NC(CC(=O)c2ccc3oc4ccccc4c3c2)C(=O)O)cc1 (stereo not shown) [Example 46, 4-Dibenzofuran-2-yl-2-(4-methoxy-benzoylamino)-4-oxo-butyric acid] | 1 | – | 11 | 0.14 | – | – |
| O=C(CC(NC(=O)C(c1ccccc1)c1ccccc1)C(=O)O)c1ccc2oc3ccccc3c2c1 (stereo not shown) [Example 18, 4-Dibenzofuran-2-yl-2-diphenylacetylamino-4-oxo-butyric acid] | 0.36 | – | 1.1 | 0.1 | – | – |
| O=C(CC(NC(=O)C1CCCC1)C(=O)O)c1ccc2oc3ccccc3c2c1 (stereo not shown) [Example 49, 2-(Cyclopentanecarbonyl-amino)-4-dibenzofuran-2-yl-4-oxo-butyric acid] | 0.35 | – | 4.4 | 0.08 | – | – |
| O=C(CC(NC(=O)c1cnc2ccccc2n1)C(=O)O)c1ccc2oc3ccccc3c2c1 (stereo not shown) [Example 44, 4-Dibenzofuran-2-yl-4-oxo-2-[(quinoxaline-2-carbonyl)-amino]-butyric acid] | 3.5 | – | 27 | 0.31 | – | – |
| CCCCOc1ccc(C(=O)NC(CC(=O)c2ccc3oc4ccccc4c3c2)C(=O)O)cc1 (stereo not shown) [Example 37, 2-(4-Butoxy-benzoylamino)-4-dibenzofuran-2-yl-4-oxo-butyric acid] | 5 | – | 58 | 0.8 | – | – |
| O=C(C=Cc1ccccc1)NC(CC(=O)c1ccc2oc3ccccc3c2c1)C(=O)O (stereo not shown) [Example 25, 4-Dibenzofuran-2-yl-4-oxo-2-(3-phenyl-acryloylamino)-butyric acid] | 0.8 | – | 8.4 | 0.11 | – | – |
| CCCC(C)(C)C(=O)NC(CC(=O)c1ccc2oc3ccccc3c2c1)C(=O)O (stereo not shown) [Example 23, 4-Dibenzofuran-2-yl-2-(2,2-dimethyl-pentanoylamino)-4-oxo-butyric acid] | 0.76 | – | 5.6 | 0.17 | – | – |
| O=C(COc1ccccc1)NC(CC(=O)c1ccc2oc3ccccc3c2c1)C(=O)O (stereo not shown) [Example 28, 4-Dibenzofuran-2-yl-4-oxo-2-(2-phenoxy-acetylamino)-butyric acid] | 0.51 | – | 12 | 0.18 | – | – |
| N#Cc1ccc(C(=O)NC(CC(=O)c2ccc3oc4ccccc4c3c2)C(=O)O)cc1 (stereo not shown) [Example 35, 2-(4-Cyano-benzoylamino)-4-dibenzofuran-2-yl-4-oxo-butyric acid] | 1.1 | – | 11 | 0.11 | – | – |
| O=C(Cc1cccs1)NC(CC(=O)c1ccc2oc3ccccc3c2c1)C(=O)O (stereo not shown) [Example 52, 4-Dibenzofuran-2-yl-4-oxo-2-(2-thiophen-2-yl-acetylamino)-butyric acid] | 7.7 | – | 48 | 2.5 | – | – |
| O=C(CC(NC(=O)c1ccc(Cl)cc1)C(=O)O)c1ccc2oc3ccccc3c2c1 (stereo not shown) [Example 39, 2-(4-Chloro-benzoylamino)-4-dibenzofuran-2-yl-4-oxo-butyric acid] | 1.2 | – | 12 | 0.15 | – | – |
| CC(Oc1ccccc1)C(=O)NC(CC(=O)c1ccc2oc3ccccc3c2c1)C(=O)O (stereo not shown) [Example 30, 4-Dibenzofuran-2-yl-4-oxo-2-(2-phenoxy-propionylamino)-butyric acid] | 0.1 | 45 | 2.9 | 0.035 | – | – |
| O=C(CC(NC(=O)c1ccco1)C(=O)O)c1ccc2oc3ccccc3c2c1 (stereo not shown) [Example 41, 4-Dibenzofuran-2-yl-2-[(furan-2-carbonyl)-amino]-4-oxo-butyric acid] | 1.5 | – | 12 | 0.14 | – | – |
| O=C(COc1ccc(Cl)cc1)NC(CC(=O)c1ccc2oc3ccccc3c2c1)C(=O)O (stereo not shown) [Example 19, 2-[2-(4-Chloro-phenoxy)-acetylamino]-4-dibenzofuran-2-yl-4-oxo-butyric acid] | 3.1 | – | 46 | 0.64 | – | – |
| O=C(CCCc1ccc(Br)cc1)NC(CC(=O)c1ccc2oc3ccccc3c2c1)C(=O)O (stereo not shown) [Example 31, 2-[4-(4-Bromo-phenyl)-butyrylamino]-4-dibenzofuran-2-yl-4-oxo-butyric acid] | 5.3 | – | 25 | 0.6 | – | – |
| CCCCc1ccc(C(=O)NC(CC(=O)c2ccc3oc4ccccc4c3c2)C(=O)O)cc1 (stereo not shown) [Example 34, 2-(4-Butyl-benzoylamino)-4-dibenzofuran-2-yl-4-oxo-butyric acid] | 5.4 | – | 49 | 0.87 | – | – |
| O=C(C[C@H](NC(=O)C(F)(F)F)C(=O)O)c1ccc2oc3ccccc3c2c1 [Example 1, (S)-4-Dibenzofuran-2-yl-4-oxo-2-(2,2,2-trifluoroacetylamino)-butyric acid] | 0.95 | – | 2.8 | 0.059 | > 100 | > 100 |
| O=C(CC(NC(=O)C1CCCCC1)C(=O)O)c1ccc2oc3ccccc3c2c1 (stereo not shown) [Example 50, 2-(Cyclohexanecarbonyl-amino)-4-dibenzofuran-2-yl-4-oxo-butyric acid] | 0.7 | – | 9.1 | 0.15 | – | – |
